Experimental data taken from patent publication US10807982B2, “Bromodomain inhibitors” (CELGENE QUANTICEL RESEARCH, INC., priority 2015, dated 2020).
Structures can show the parent of a compound that is named as a salt.

Tests used:
[1] = test system: Raji, human Burkitts lymphoma cells; test: Cell-MTS cellular proliferation assay, Raji; assay type: cell-based; conditions: Homo sapiens, 168 hr incubation
How it was run: (§1)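 Cells seeded to reach ~90% confluence at 7 days (Raji 15,000, HL-60 5,000, NCI-H460 3,000 per well); 11-point compound dilution, 100 µM to 2.0 nM final, added 24 h after plating. Exposure 168 hr at 37 °C, 5% CO2; MTS read at OD490. IC50 from background-subtracted OD490 normalized to DMSO controls.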

[2] = test system: NCI-H460, human non-small cell lung cancer cells; test: Cell-MTS cellular proliferation assay, NCI-H460; assay type: cell-based; conditions: Homo sapiens, 168 hr incubation
How it was run: as §1

[3] = test system: HL-60, human proleukemia cells; test: Cell-MTS cellular proliferation assay, HL-60; assay type: cell-based; conditions: Homo sapiens, HL-60 cells, 168 hr incubation
How it was run: as §1

BRD4(BD1) = BRD4(BD1) (Homo sapiens (Human), UniProt O60885); test: In vitro enzyme inhibition assay (BRD4 AlphaScreen, H4-tetraacetyl peptide); assay type: binding; conditions: BRD4(BD1) 2 nM, peptide 15 nM
How it was run: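 His-tagged BRD4(BD1), 2 nM, with 15 nM biotinylated H4K5/8/12/16(Ac) peptide in HEPES pH 7.3 buffer, 0.4% DMSO, 20 min RT with compound. Streptavidin donor and Ni-chelate acceptor beads (5 μg/mL) then equilibrated 2 h. AlphaScreen signal; IC50 by four-parameter fit.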

Row | Compound | IC50 [1] | IC50 [2] | IC50 [3] | IC50 (BRD4(BD1))
1 | COc1nc2c(CS(C)(=O)=O)cc(-c3cc(C)c(=O)n(C)c3)cc2n1CC1CC1 [Example 99, 5-[3-(cyclopropylmethyl)-2-methoxy-7-(methylsulfonylmethyl)benzimidazol-5-yl]-1,3-dimethylpyridin-2-one] | ≤ 0.5 µM | > 5 µM | ≤ 0.5 µM | ≤ 0.5 µM
2 | CCS(=O)(=O)Cc1cc(-c2cc(OC)c(=O)n(C)c2)c2oc(C3CC3)nc2c1 [Example 100, 5-[2-cyclopropyl-5-(ethylsulfonylmethyl)-1,3-benzoxazol-7-yl]-3-methoxy-1-methylpyridin-2-one] | ≤ 0.5 µM | > 5 µM | ≤ 0.5 µM | ≤ 0.5 µM
3 | Cc1cc(-c2cc(NS(C)(=O)=O)c3oc(=O)n(CC4CC4)c3c2)cn(C)c1=O [Example 101, N-[3-(cyclopropylmethyl)-5-(1,5-dimethyl-6-oxopyridin-3-yl)-2-oxo-1,3-benzoxazol-7-yl]methanesulfonamide] | 0.5 to 5 µM | > 5 µM | 0.5 to 5 µM | ≤ 0.5 µM
4 | Cc1cc(-c2cc(NS(C)(=O)=O)c3oc(=O)n(Cc4ccc(F)cc4)c3c2)cn(C)c1=O [Example 102, N-[5-(1,5-dimethyl-6-oxopyridin-3-yl)-3-[(4-fluorophenyl)methyl]-2-oxo-1,3-benzoxazol-7-yl]methanesulfonamide] | ≤ 0.5 µM | > 5 µM | ≤ 0.5 µM | ≤ 0.5 µM

Next, values leading:

Row | IC50 [1] | IC50 [2] | IC50 [3] | IC50 (BRD4(BD1)) | Compound
5 | ≤ 0.5 µM | > 5 µM | ≤ 0.5 µM | ≤ 0.5 µM | CCCCn1c(C)nc2c(NS(C)(=O)=O)cc(-c3cc(C)c(=O)n(C)c3)cc21 [Example 94, N-[1-butyl-6-(1,5-dimethyl-6-oxopyridin-3-yl)-2-methylbenzimidazol-4-yl]methanesulfonamide hydrochloride]
6 | ≤ 0.5 µM | > 5 µM | ≤ 0.5 µM | ≤ 0.5 µM | CCCCn1c(C)nc2c(NS(C)(=O)=O)cc(-c3cc(OC)c(=O)n(C)c3)cc21 [Example 95, N-[1-butyl-6-(5-methoxy-1-methyl-6-oxopyridin-3-yl)-2-methylbenzimidazol-4-yl]methanesulfonamide hydrochloride]
7 | ≤ 0.5 µM | > 5 µM | ≤ 0.5 µM | ≤ 0.5 µM | Cc1cc(-c2cc(CS(C)(=O)=O)c3nc(C)n(CC4CC4)c3c2)cn(C)c1=O [Example 96, 5-[3-(cyclopropylmethyl)-2-methyl-7-(methylsulfonylmethyl)benzimidazol-5-yl]-1,3-dimethylpyridin-2-one]
8 | ≤ 0.5 µM | > 5 µM | ≤ 0.5 µM | ≤ 0.5 µM | CCOc1nc2c(CS(C)(=O)=O)cc(-c3cc(C)c(=O)n(C)c3)cc2n1CC1CC1 [Example 97, 5-[3-(cyclopropylmethyl)-2-ethoxy-7-(methylsulfonylmethyl)benzimidazol-5-yl]-1,3-dimethylpyridin-2-one]
9 | ≤ 0.5 µM | > 5 µM | ≤ 0.5 µM | ≤ 0.5 µM | CCOc1nc2c(CS(C)(=O)=O)cc(-c3cc(OC)c(=O)n(C)c3)cc2n1CC1CC1 [Example 98, 5-[3-(cyclopropylmethyl)-2-ethoxy-7-(methylsulfonylmethyl)benzimidazol-5-yl]-3-methoxy-1-methylpyridin-2-one]
